These are literature values, as cited in patent US12059317B2, “Multi-phase oral care compositions” (The Procter & Gamble Company, priority 2019, dated 2024).

Read-outs that look alike come from different tables or passages of the source.

For the data set the following is noted: for Solubility in Water (number of parts by weight per 100 parts by weight of water): hydrophilic bleaching agent particle of the composition, PVP complex value estimated from supplier data sheet on PVP K-30.

For `NC(N)=O.OO` [Urea Peroxide, Urea Hydrogen Peroxide Adduct], the “Solubility in Water (number of parts by weight per 100 parts by weight of water)” value is 80 parts by weight per 100 parts by weight of water. The Solubility in water (at 20 C, per Safety Data Sheet from supplier) is 800 grams per liter. Moreover, under “footnote values from supplier data sheets / Wikipedia”, the Solubility in water is 80 parts per 100 parts of water. Further, the “Solubility in Water (number of parts by weight per 100 parts by weight of water)” value (listed as urea peroxide) was 80 parts by weight per 100 parts.
